{
  "source": "paper PMC5601486",
  "about": "“Identification of 4-phenylquinolin-2(1H)-one as a specific allosteric inhibitor of Akt” (Scientific Reports, 2017)",
  "key": {"Akt S473 phosphorylation": {"tested_on": "Akt S473 phosphorylation", "assay": "pS473-Akt HTRF assay", "format": "cell-based, Mouse", "description": "Neuro 2A cells were seeded (4,000 cells/well) in 4 µL of DMEM with 0.5% FBS and 1x Penicillin/Streptomycin in white solid bottom tissue-culture treated 1536-well plates (Greiner, 789173-F) with MultiDrop Combi Dispenser (Thermo Scientific). The cells were incubated for 24 h at 37 °C, 5% CO2, 95% humidity. Twenty-three nL of tested compounds were transferred to each well with an automated pin-tool station (Kalypsys). Following incubation for 15 min at 37 °C, 0.5 µL IGF (500 ng/mL of final concentration) was added and incubated for additional 40 min at 37 °C. After the addition of 1.5 µL 4x lysis buffer and 15-min incubation at room temperature (25 °C), 2 µL of HTRF® conjugated antibodies (fluorophore d2 conjugated anti-Akt monoclonal antibody and Europium^3+ cryptate-labeled anti-pS473-Akt monoclonal antibody, obtained from CisBio, 1:80 dilution) were added with BioRAPTR FRD™ (Beckman Coulter). The plates were incubated at room temperature for 20 h. The signal was measured by EnVision Multilabel Plate Reader (PerkinElmer) with excitation at 330 nm, emission at 620 nm (donor) and 665 nm (acceptor). Results were calculated and analyzed in a format of the ratio 665 nm/620 nm multiplied by 10^4.\nRelative activity was calculated by normalizing each HTRF signal from each sample well to the mean HTRF signal from the DMSO-only control wells.\nThe Library of Pharmacologically Active Compounds (LOPAC, 1280 compounds) and the Molecular Library Small Molecular Repository Library (MLSMR, 373,868 compounds) were obtained from Sigma-Aldrich.\nQuantitative HTS (qHTS) and curve response class classification\nThe qHTS screen was performed as described previously1. Each compound was titrated in seven concentrations. The final concentrations of the compounds assayed ranged from 4.9 nM to 76.6 µM. The curve response classifications (CRC), which can be used to depict potency, efficacy and reliability of the data, and to estimate an IC50 value, were determined by a customized software2. […]\nSigma-Aldrich) and the basal response (0% inhibition) was set to the DMSO control.\nEfficacy of a compound refers to the highest response normalized to the maximal response of LY. The CRCs were grouped into 4 categories. Class 1 are well-fit and have both upper and lower asymptotes with efficacy greater than 30%\n(Class1.1, >80% efficacy; Class 1.2; 30-80% efficacy). Class 2 are incomplete with only one asy mptote (Class 2.1, > 80% efficacy; Class 2.2, 30-80% % efficacy). Class 3 display activity only at the highest concentrations and efficacy >30%. Class 4 are with low efficacy (<30%) or no response and considered inactive3."}, "Akt T308 phosphorylation": {"tested_on": "Akt T308 phosphorylation", "assay": "Western blot analysis of T308 phosphorylation", "format": "cell-based", "settings": "Mus musculus, N2a, 0.5 h; Neuro 2A cells, G7 30 min then IGF 30 min", "description": "The following criteria were applied for hit selection from the primary screen: 1, hits in robust curve classes (1/2/3) with efficacy greater than 30% were considered active; 2, these hits were filtered for donor interference; 3, hits were further filtered by reactive and promiscuous functional groups, as previously described4; 4, hits were clustered by structural similarity using Leadscope Hosted Client (Leadscope Inc., Columbus, […]\n(§1) Neuro 2A cells were seeded in 12-well plates in DMEM containing 5% FBS for 24 hr.\n(§2) After overnight serum starvation (in 0% FBS DMEM), cells were incubated for 30 min at 37 °C with G7 or LY294002 or Torin 1 (Sigma Aldrich) at various concentrations, or DMSO control. IGF-1 was added to each well at a final concentration of 100 ng/mL. After 30-min incubation cells were washed with cold PBS and lysed with 50 µL lysis buffer containing 1% Triton X-100 and protease/phosphatase inhibitors (Cell Signaling Technology) or RIPA buffer (Santa Cruz Biotech). […]\n(§3) anti- GAPDH (14C10) antibody (#2118) (all antibodies were from Cell Signaling Technology unless indicated, 1:1000 dilution was used) at 4°C overnight, washed three times with TBS-T, then incubated with peroxidase-conjugated secondary antibody (Sigma-Aldrich) for 1 hr at room temperature. […] Band intensity was quantitated using Kodak 1D imaging analysis software. […]"}, "PKA": {"tested_on": "PKA", "assay": "Western blot of PKA phosphorylation", "format": "cell-based, Mouse", "settings": "Neuro 2A cells", "description": "as §1\nas §2, with “Biotech). Samples were electrophoresed in 4–12% Bis-Tris gels (Life Technologies) at 150 V using MOPS SDS running buffer. Proteins were transferred electrophoretically to a PVDF or nitrocellulose membrane. For detection of cleaved” for “Biotech).”\ncaspase 3 a Trans-Blot Turbo Transfer System (Bio-Rad, 25 V for 25 min) with PVDF membrane were used. […]\nas §3"}, "Akt": {"tested_on": "T1, Akt", "T1 construct": "purchased Millipore 14-279", "assay": "In vitro phosphorylation of Akt T308 by PDK1", "format": "biochemical", "settings": "inactive Akt, PE/PC/PS/PIP3 vesicles"}, "MTOR": {"tested_on": "MTOR", "assay": "KINOMEscan", "settings": "50000 nM", "quoted_text": "KINOMEscan™ selectivity screen\n(§4) The assay was perfor med at DiscoveRx Corporation according the methods published previously5. Briefly, Kinase-tagged T7 phage strains were grown in parallel in an E. coli host derived from the BL21 strain. E. coli were grown to log-phase and infected with T7 phage from a frozen stock and incubated with shaking at 32°C until lysis (90-150 minutes). The kinases were produced in HEK-293 cells and subsequently tagged with DNA for qPCR detection. Streptavidin-coated magnetic beads were treated with biotinylated small molecule ligands to generate affinity resins for kinase\n(§5) inhibitor or DMSO control was performed in polypropylene 384-well plates for 1 hr at room temperature. After wash with PBS buffer containing 0.05% Tween 20, the beads were incubated in elution buffer (PBS containing 0.05 % Tween 20 and 0.5 μM non-biotinylated affinity ligand) for 30 minutes at room temperature. The kinase concentration in the eluates was measured by qPCR."}, "SgK110": {"tested_on": "SgK110", "assay": "KINOMEscan", "settings": "50000 nM", "quoted_text": "KINOMEscan™ selectivity screen\nas §4, §5"}, "PCTK2": {"tested_on": "PCTK2", "assay": "KINOMEscan", "settings": "50000 nM", "quoted_text": "KINOMEscan™ selectivity screen\nas §4, §5"}, "PIK3CA(E545K)": {"tested_on": "PIK3CA(E545K)", "assay": "KINOMEscan", "settings": "50000 nM", "quoted_text": "KINOMEscan™ selectivity screen\nas §4, §5"}, "PRKCI": {"tested_on": "PRKCI", "assay": "KINOMEscan", "settings": "50000 nM", "quoted_text": "KINOMEscan™ selectivity screen\nas §4, §5"}, "LIMK2": {"tested_on": "LIMK2", "assay": "KINOMEscan", "settings": "50000 nM", "quoted_text": "KINOMEscan™ selectivity screen\nas §4, §5"}, "TLK2": {"tested_on": "TLK2", "assay": "KINOMEscan", "settings": "50000 nM", "quoted_text": "KINOMEscan™ selectivity screen\n(§6) Briefly, Kinase-tagged T7 phage strains were grown in parallel in an E. coli host derived from the BL21 strain. E. coli were grown to log-phase and infected with T7 phage from a frozen stock and incubated with shaking at 32°C until lysis (90-150 minutes). The kinases were produced in HEK-293 cells and subsequently tagged with DNA for qPCR detection. Streptavidin-coated magnetic beads were treated with biotinylated small molecule ligands to generate affinity resins for kinase\nas §5"}, "WNK2": {"tested_on": "WNK2", "assay": "KINOMEscan", "settings": "50000 nM", "quoted_text": "KINOMEscan™ selectivity screen\nThe assay was perfor med at DiscoveRx Corporation according the methods published previously5. […] The kinases were produced in HEK-293 cells and subsequently tagged with DNA for qPCR detection. Streptavidin-coated magnetic beads were treated with biotinylated small molecule ligands to generate affinity resins for kinase\nas §5"}, "p38-alpha": {"tested_on": "p38-alpha", "assay": "KINOMEscan", "settings": "50000 nM", "quoted_text": "KINOMEscan™ selectivity screen\nas §6, §5"}, "PIK3CA": {"tested_on": "PIK3CA", "assay": "KINOMEscan", "settings": "50000 nM", "quoted_text": "KINOMEscan™ selectivity screen\nas §4, §5"}, "FLT3(ITD,F691L)": {"tested_on": "FLT3(ITD,F691L)", "assay": "KINOMEscan", "settings": "50000 nM", "quoted_text": "KINOMEscan™ selectivity screen\nas §4, §5"}},
  "data": [
    {"compound": "Oc1cc(-c2ccccc2)c2ccccc2n1", "note": "[G7, 4-phenylquinolin-2(1H)-one]", "values": [
      {"measurement": "IC50", "setting": "Akt S473 phosphorylation; Mus musculus, N2a, Neuro 2A cells, inhibitor 15 min before IGF, read-out: IC50", "value": "~20", "unit": "µM"},
      {"measurement": "maximum inhibition", "setting": "Akt S473 phosphorylation; compared to that of 100 µM LY", "value": 50, "unit": "%"},
      {"measurement": "IC50", "setting": "Akt T308 phosphorylation", "value": 4.9, "unit": "µM"},
      {"measurement": "phosphorylation (activation status) of PKA", "setting": "PKA", "value": "did not alter"},
      {"measurement": "in vitro phosphorylation of T308 by PDK1", "setting": "Akt", "value": "impaired"},
      {"measurement": "Percent Control", "setting": "MTOR", "value": 100, "unit": "%"},
      {"measurement": "Percent Control", "setting": "SgK110", "value": 100, "unit": "%"},
      {"measurement": "Percent Control", "setting": "PCTK2", "value": 99, "unit": "%"},
      {"measurement": "Percent Control", "setting": "PIK3CA(E545K)", "value": 98, "unit": "%"},
      {"measurement": "Percent Control", "setting": "PRKCI", "value": 98, "unit": "%"},
      {"measurement": "Percent Control", "setting": "LIMK2", "value": 97, "unit": "%"},
      {"measurement": "Percent Control", "setting": "TLK2", "value": 89, "unit": "%"},
      {"measurement": "Percent Control", "setting": "WNK2", "value": 84, "unit": "%"},
      {"measurement": "Percent Control", "setting": "p38-alpha", "value": 83, "unit": "%"},
      {"measurement": "Percent Control", "setting": "PIK3CA", "value": 82, "unit": "%"},
      {"measurement": "Percent Control", "setting": "FLT3(ITD,F691L)", "value": 40, "unit": "%"}
    ]}
  ]
}
